US10670605B2, “Cysteine reactive probes and uses thereof” (The Scripps Research Institute, priority 2015, dated 2020)
Counter-ions that a name gives are not always drawn.

Tests used:
[1] = tested on: Cys residues in mouse T cells; test: isoTOP-ABPP of DMF-treated mouse T cells; type: cell-based; settings: 50 μM, 4 h
Procedure: Spleens were harvested from female mice, perfused with collagenase, and incubated at 37° C. with 5% CO2 for 30 min. After this time, the spleens were homogenized. Cells that passed through a 100 μm cell strainer were collected and washed with RPMI. T cells were isolated from the splenocytes using the EasySep™ Mouse T cell Isolation Kit (19851; […]) according to manufacturer's instructions. Cells were lysed by sonication and diluted to a concentration of 2 mg protein/mL. […] Site-specific engagement of electrophilic compounds was assessed by blockade of IA-alkyne probe labeling. […] Overlapping peptides with the same labeled cysteine (for example, same local sequence around the labeled cysteines but different charge states, MudPIT segment numbers, or tryptic termini) were grouped together, and the median ratio from each group was recorded as the R value of the peptide for that run.

USP48 C39 (Q86UV5) = biological target: T1, USP48 C39 (Q86UV5) (Homo sapiens, UniProt Q86UV5); test: Competitive isoTOP-ABPP in situ; type: cell-based; settings: fragment 2 at 200 μM, MDA-MB-231 cells
T1 sequence (Q86UV5 1-1035): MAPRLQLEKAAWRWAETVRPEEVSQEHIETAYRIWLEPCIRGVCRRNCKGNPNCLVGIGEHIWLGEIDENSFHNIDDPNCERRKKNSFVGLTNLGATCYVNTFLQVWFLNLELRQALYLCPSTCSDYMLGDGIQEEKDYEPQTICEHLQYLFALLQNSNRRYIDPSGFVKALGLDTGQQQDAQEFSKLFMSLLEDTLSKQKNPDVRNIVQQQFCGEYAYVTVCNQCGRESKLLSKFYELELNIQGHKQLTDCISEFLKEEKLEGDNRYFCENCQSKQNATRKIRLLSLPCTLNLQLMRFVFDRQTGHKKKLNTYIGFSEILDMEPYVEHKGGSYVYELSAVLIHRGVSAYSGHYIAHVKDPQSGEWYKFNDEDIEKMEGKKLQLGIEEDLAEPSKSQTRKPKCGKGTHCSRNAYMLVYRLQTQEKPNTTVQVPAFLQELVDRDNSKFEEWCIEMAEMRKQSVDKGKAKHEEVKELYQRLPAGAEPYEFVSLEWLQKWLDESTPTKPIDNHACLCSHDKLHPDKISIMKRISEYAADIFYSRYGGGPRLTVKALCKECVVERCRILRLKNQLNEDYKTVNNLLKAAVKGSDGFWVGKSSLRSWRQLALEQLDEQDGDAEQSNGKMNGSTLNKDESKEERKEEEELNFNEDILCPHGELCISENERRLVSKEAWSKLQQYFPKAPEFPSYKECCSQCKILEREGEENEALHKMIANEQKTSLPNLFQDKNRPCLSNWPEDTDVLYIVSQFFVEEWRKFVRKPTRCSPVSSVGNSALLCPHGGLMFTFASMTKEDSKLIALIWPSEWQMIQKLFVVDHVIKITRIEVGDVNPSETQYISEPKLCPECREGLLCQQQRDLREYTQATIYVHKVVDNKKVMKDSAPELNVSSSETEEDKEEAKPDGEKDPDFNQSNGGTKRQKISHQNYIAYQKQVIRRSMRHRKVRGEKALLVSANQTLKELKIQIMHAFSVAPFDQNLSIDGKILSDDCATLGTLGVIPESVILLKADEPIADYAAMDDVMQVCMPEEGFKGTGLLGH

| Structure (SMILES) | fraction of conserved, quantified DMF-sensitive Cys also blocked (R >4) in mouse T cells [1] [%] | isoTOP-ABPP reactivity profile (ratio) 2_200 μM_in-situ_231 (USP48 C39 (Q86UV5)) |
| --- | --- | --- |
| COC(=O)/C=C/C(=O)OC [DMF, dimethyl fumarate] | > 80 | – |
| COc1ccc2c(c1)CCCN2C(=O)CCl [compound 2] | – | 20.0 |
